In the series the test system is CCRIS mutagenicity, Ames/micronucleus/aberration tests. As to the kind of experiment: CCRIS mutagenicity studies.
The mark [1] stands for this setting: Test System: AMES SALMONELLA TYPHIMURIUM, Strain/Indicator: TA98, Metabolic Activation: NONE, Method: STANDARD PLATE.
The mark [2] stands for this setting: Test System: AMES SALMONELLA TYPHIMURIUM, Strain/Indicator: TA98, Metabolic Activation: RAT, LIVER, S-9, AROCLOR 1254, Method: STANDARD PLATE.
The mark [3] stands for this setting: Test System: AMES SALMONELLA TYPHIMURIUM, Strain/Indicator: TA100, Metabolic Activation: RAT, LIVER, S-9, AROCLOR 1254, Method: STANDARD PLATE.
[4] abbreviates: Test System: AMES SALMONELLA TYPHIMURIUM, Strain/Indicator: TA1535, Metabolic Activation: NONE, Method: STANDARD PLATE.
Where [5] appears, read: Test System: AMES SALMONELLA TYPHIMURIUM, Strain/Indicator: TA100, Metabolic Activation: NONE, Method: STANDARD PLATE.
[6] abbreviates: Test System: AMES SALMONELLA TYPHIMURIUM, Strain/Indicator: TA98, Metabolic Activation: NONE, Method: PREINCUBATION
Setting [7] is: Test System: AMES SALMONELLA TYPHIMURIUM, Strain/Indicator: TA100, Metabolic Activation: NONE, Method: PREINCUBATION
Where [8] appears, read: Test System: AMES SALMONELLA TYPHIMURIUM, Strain/Indicator: TA1535, Metabolic Activation: NONE, Method: PREINCUBATION
Where [9] appears, read: Test System: AMES SALMONELLA TYPHIMURIUM, Strain/Indicator: TA1537, Metabolic Activation: NONE, Method: PREINCUBATION

Molecules are shown by their SMILES. Active and inactive are the calls of the source. The rule behind the calls is not given here.

With `CC(=O)C(Cl)Cl`, the mutagenic call is, setting by setting: under setting [1], “inactive; negative”; under setting [2], “inactive; negative”; (Test System: AMES SALMONELLA TYPHIMURIUM, Strain/Indicator: TA100, Metabolic Activation: NONE, Method: FLUCTUATION TEST) “active; positive”; (Test System: AMES SALMONELLA TYPHIMURIUM, Strain/Indicator: TA100, Metabolic Activation: RAT, LIVER, S-9, AROCLOR 1254, Method: FLUCTUATION TEST) “inactive; negative”; under setting [3], “active; positive”; under setting [4], “active; positive”. Besides, the mutagenic call was “active; positive” (Test System: AMES SALMONELLA TYPHIMURIUM, Strain/Indicator: TA1535, Metabolic Activation: RAT, LIVER, S-9, AROCLOR 1254, Method: STANDARD PLATE); “inactive; negative” (Test System: AMES SALMONELLA TYPHIMURIUM, Strain/Indicator: TA1537, Metabolic Activation: NONE, Method: STANDARD PLATE); “inactive; negative” (Test System: AMES SALMONELLA TYPHIMURIUM, Strain/Indicator: TA1537, Metabolic Activation: RAT, LIVER, S-9, AROCLOR 1254, Method: STANDARD PLATE).
On to `CC(=O)ON(OCc1ccc([N+](=O)[O-])cc1)C(=O)c1ccccc1`, for which the mutagenic call was “active; positive” under setting [5] and “active; positive” (Test System: AMES SALMONELLA TYPHIMURIUM, Strain/Indicator: TA100, Metabolic Activation: RAT, S-9, AROCLOR, Method: STANDARD PLATE).
In the case of `O=C(O)CCSCCC(=O)O`, the mutagenic call is “inactive; negative” (Test System: Ames Salmonella typhimurium, Strain/Indicator: TA98, Metabolic Activation: None, Method: Preincubation); “inactive; negative” (Test System: Ames Salmonella typhimurium, Strain/Indicator: TA98, Metabolic Activation: Rat, Liver, S-9, Phenobarbital and 5,6-benzoflavone, Method: Preincubation); “inactive; negative” (Test System: Ames Salmonella typhimurium, Strain/Indicator: TA100, Metabolic Activation: None, Method: Preincubation); “inactive; negative” (Test System: Ames Salmonella typhimurium, Strain/Indicator: TA100, Metabolic Activation: Rat, Liver, S-9, Phenobarbital and 5,6-benzoflavone, Method: Preincubation); “inactive; negative” (Test System: Ames Salmonella typhimurium, Strain/Indicator: TA1535, Metabolic Activation: None, Method: Preincubation); “inactive; negative” (Test System: Ames Salmonella typhimurium, Strain/Indicator: TA1535, Metabolic Activation: Rat, Liver, S-9, Phenobarbital and 5,6-benzoflavone, Method: Preincubation). Moreover, the mutagenic call (Test System: Ames Salmonella typhimurium, Strain/Indicator: TA1537, Metabolic Activation: None, Method: Preincubation) is “inactive; negative”; the mutagenic call (Test System: Ames Salmonella typhimurium, Strain/Indicator: TA1537, Metabolic Activation: Rat, Liver, S-9, Phenobarbital and 5,6-benzoflavone, Method: Preincubation) was “inactive; negative”; the mutagenic call (Test System: E. coli, Strain/Indicator: WP2uvrA/pKM101, Metabolic Activation: None, Method: Preincubation) is “inactive; negative”; the mutagenic call (Test System: E. coli, Strain/Indicator: WP2uvrA/pKM101, Metabolic Activation: Rat, Liver, S-9, Phenobarbital and 5,6-benzoflavone, Method: Preincubation) is “inactive; negative”.
Turning to `CN(C)C`, the mutagenic call was “inactive; negative” (Test System: AMES SALMONELLA TYPHIMURIUM, Strain/Indicator: TA98, Metabolic Activation: HAMSTER, LIVER, S-9, AROCLOR 1254 (10%), Method: PREINCUBATION); “inactive; negative” under setting [6]; “inactive; negative” (Test System: AMES SALMONELLA TYPHIMURIUM, Strain/Indicator: TA98, Metabolic Activation: RAT, LIVER, S-9, AROCLOR 1254 (10%), Method: PREINCUBATION); “inactive; negative” (Test System: AMES SALMONELLA TYPHIMURIUM, Strain/Indicator: TA100, Metabolic Activation: HAMSTER, LIVER, S-9, AROCLOR 1254 (10%), Method: PREINCUBATION); “inactive; negative” under setting [7]; “inactive; negative” (Test System: AMES SALMONELLA TYPHIMURIUM, Strain/Indicator: TA100, Metabolic Activation: RAT, LIVER, S-9, AROCLOR 1254 (10%), Method: PREINCUBATION). Moreover, the mutagenic call is, setting by setting: (Test System: AMES SALMONELLA TYPHIMURIUM, Strain/Indicator: TA1535, Metabolic Activation: HAMSTER, LIVER, S-9, AROCLOR 1254 (10%), Method: PREINCUBATION) “inactive; negative”; under setting [8], “inactive; negative”; (Test System: AMES SALMONELLA TYPHIMURIUM, Strain/Indicator: TA1535, Metabolic Activation: RAT, LIVER, S-9, AROCLOR 1254 (10%), Method: PREINCUBATION) “inactive; negative”; (Test System: AMES SALMONELLA TYPHIMURIUM, Strain/Indicator: TA1537, Metabolic Activation: HAMSTER, LIVER, S-9, AROCLOR 1254 (10%), Method: PREINCUBATION) “inactive; negative”; under setting [9], “inactive; negative”; (Test System: AMES SALMONELLA TYPHIMURIUM, Strain/Indicator: TA1537, Metabolic Activation: RAT, LIVER, S-9, AROCLOR 1254 (10%), Method: PREINCUBATION) “inactive; negative”.
For the compound `CC(O)C(C)O` (stereo not drawn), the mutagenic call is “inactive; negative” under setting [6]; “inactive; negative” under setting [7]; “inactive; negative” under setting [8]; “inactive; negative” under setting [9]; “inactive; negative” (Test System: AMES SALMONELLA TYPHIMURIUM, Strain/Indicator: TA1538, Metabolic Activation: NONE, Method: PREINCUBATION); “inactive; negative” (Test System: E. COLI, Strain/Indicator: WP2 UVRA, Metabolic Activation: NONE, Method: PREINCUBATION).
Take `C=C1[C@@H]2CC[C@H]3[C@]4(C)CCC[C@@](C)(C(=O)O)[C@H]4CC[C@]3(C2)[C@H]1O`: the mutagenic call (Test System: AMES SALMONELLA TYPHIMURIUM, Strain/Indicator: TM677, Metabolic Activation: RAT, LIVER, S-9, AROCLOR 1254, Method: PREINCUBATION) was “inactive; negative”.
Take `c1ccc2c(c1)ccc1cc3c(ccc4ccncc43)cc12`: the mutagenic call was “inactive; negative” under setting [1]; “active; positive” (Test System: AMES SALMONELLA TYPHIMURIUM, Strain/Indicator: TA98, Metabolic Activation: RAT, LIVER, S-9, AROCLOR 1254 (10%), Method: STANDARD PLATE); “active; positive” under setting [2]; “inactive; negative” under setting [5]; “active; positive” (Test System: AMES SALMONELLA TYPHIMURIUM, Strain/Indicator: TA100, Metabolic Activation: RAT, LIVER, S-9, 1254 (10%), Method: STANDARD PLATE); “active; positive” under setting [3].
For `CC(C)CCC[C@@H](C)[C@H]1CC[C@H]2[C@@H]3C[C@@H]4O[C@@]45C[C@@H](O)CC[C@]5(C)[C@H]3CC[C@]12C`, the mutagenic call is, setting by setting: (Test System: AMES SALMONELLA TYPHIMURIUM, Strain/Indicator: TA97, Metabolic Activation: NONE, Method: STANDARD PLATE) “inactive; negative”; under setting [1], “inactive; negative”; under setting [5], “inactive; negative”; (Test System: AMES SALMONELLA TYPHIMURIUM, Strain/Indicator: TA102, Metabolic Activation: NONE, Method: STANDARD PLATE) “inactive; negative”; under setting [4], “inactive; negative”; (Test System: AMES SALMONELLA TYPHIMURIUM, Strain/Indicator: TA1538, Metabolic Activation: RAT, LIVER, S-9, AROCLOR 1254 (10%), Method: STANDARD PLATE) “active; positive”. Moreover, the mutagenic call reads like this: (Test System: CHINESE HAMSTER V-79, Strain/Indicator: V-79/6-THIOGUANINE, Metabolic Activation: NONE) “active; positive”; (Test System: CHINESE HAMSTER V-79, Strain/Indicator: V-79/8-AZAGUANINE, Metabolic Activation: NONE) “active; positive”; (Test System: CHINESE HAMSTER V-79, Strain/Indicator: V-79/OUABAIN, Metabolic Activation: NONE) “inactive; negative”; (Test System: MOUSE LYMPHOMA, Strain/Indicator: L5178Y (TK+/TK-), Metabolic Activation: NONE, Method: SUSPENSION/PLATE) “active; positive. reevaluation of results: equivocal”; (Test System: Mouse lymphoma, Strain/Indicator: L5178Y (tk+/tk-), Metabolic Activation: Rat, Liver, S-9, Aroclor 1254, Method: Suspension/plate) “inactive; inconclusive (previous evaluation negative)”.
As for `O=C1OCC(CBr)=C1Cl`, the mutagenic call under setting [5] is “active; positive”.

The values above are taken from PubChem BioAssay AID1259407 (Chemical Carcinogenesis Research Information System (CCRIS), 2018).
